# Test results: US20100197586A1, “USE OF SECRETIN AND OPTIONALLY URODILATIN AS THERAPEUTIC AGENTS” (priority 2007, published 2010)
# Where no end group is shown, it is not given here.
# Experiments:
# [1] = system: HCMV strain AD169; experiment: HCMV plaque assay in MRC-5 cells; settings: for inhibition of HCMV plaque formation as compared to the virus control experiment: 10 micrograms per ml, MRC-5 cells, 7-10 days
# [2] = system: hepatitis B virus (HBV) ayw strain; experiment: HBV experimental assay system (HepG2-2.2.15, TaqMan PCR of HBV DNA); format: cell-based; settings: 10 micrograms per ml; HepG2-2.2.15, six days; combination 0.95 mole peptide 1 and 1.05 mole peptide 2
# Source text: HepG2-2.2.15 is a stable cell line containing the hepatitis B virus (HBV) ayw strain genome (ATCC Cat. No. CRL-11997). Antiviral compounds blocking any late step of viral replication such as transcription, translation, pregenome encapsidation, reverse transcription, particle assembly and release can be identified and characterized using this cell line. In this assay, an active compound will reduce the production of secreted HBV from cells, measured by utilizing real time quantitative PCR (TaqMan) assay to directly and accurately measure HBV DNA copies.
# HepG2-2.2.15 cells were plated in 96-well microtiter plates. After 16-24 hours the confluent monolayer of HepG2-2.2.15 cells was washed and the medium was replaced with complete medium containing test peptides—10 micrograms per ml—in duplicate. […] Six days following the initial administration of the peptides, the cell culture supernatants was collected, treated with pronase and DNAse and then used in a real-time quantitative TaqMan PCR assay. The PCR-amplified HBV DNA was detected in real-time by monitoring increases in fluorescence signals that result from the exonucleolytic degradation of a quenched fluorescence probe molecule that hybridizes to the amplified HBV DNA. […] Antiviral activity was calculated from the reduction in HBV DNA levels (% virus control). […]
# [3] = system: Interleukin-2 (IL-2); experiment: Th1/Th2 cytokine profiling assay: IL-2; format: cell-based, mouse; settings: 10 micrograms per ml, 72 hours
# [4] = system: Interleukin-4 (IL-4); experiment: Th1/Th2 cytokine profiling assay: IL-4; format: cell-based, mouse; settings: 10 micrograms per ml, Ovalbumin-restimulated spleen cells, 72 hours
# [5] = system: Interferon-γ (IFN-γ); experiment: Th1/Th2 cytokine profiling assay: IFN-γ; format: cell-based, mouse; settings: 10 micrograms per ml; Ovalbumin-restimulated spleen cells, 72 hours; combination 0.95 mole peptide 1 and 1.05 mole peptide 2
# [6] = system: Tumor Necrosis Factor-α (TNF-α); experiment: Th1/Th2 cytokine profiling assay: TNF-α; format: cell-based, mouse; settings: 10 micrograms per ml; Ovalbumin-restimulated spleen cells, 72 hours; combination 0.95 mole peptide 1 and 1.05 mole peptide 2
# [7] = system: Primary Human endothelial cells (HUVEC); experiment: Endothelial cell migration assay; format: cell-based; settings: 10 micrograms per ml, 22 hours
# [8] = system: HUVEC; experiment: Endothelial tube formation assay; format: cell-based, human; settings: 10 micrograms per ml, 20 hours, combination peptide 1:peptide 2 1.10 mole:0.90 mole
# Source text: Positive control was vehicle only.
# [9] = system: MRSA; experiment: Methicillin Resistant Staphylococcus Aureus (MRSA) assay; settings: 10 micrograms per ml; 5×10^5 CFU/mL; combination for instance 0.95 mole peptide 1 and 1.05 mole peptide 2
# [10] = system: Interleukin-5 (IL-5); experiment: Th1/Th2 cytokine profiling assay: IL-5; format: cell-based, mouse; settings: 10 micrograms per ml; Ovalbumin-restimulated spleen cells, 72 hours
# [11] = system: HIV-1IIIB; experiment: HIV-1 antiviral assay in CEM-SS cells
Compound,inhibition of HBV replication as compared to the virus control infection [2],change of the production of IFN-γ in murine spleen cells [5],change of the production of TNF-alpha in murine spleen cells [6],inhibition of the migration of human endothelial cells [7],inhibition of the tube formation of human endothelial cells [8],inhibition of HCMV plaque formation as compared to the virus control experiment [1],inhibition of the growth of MRSA [9],antiviral activity of positive control compounds (HIV-1) [11],other results
"Nc1nc(O)c2ncn(COC(CO)CO)c2n1 [Ganciclovir, reference compound]",,,,,,,,,antiviral activity of positive control compound (HCMV) ([1]; positive control compound): expected levels of antiviral activity
Thr-Ala-Pro-Arg-Ser-Leu-Arg-Arg-Ser-Ser-Cys-Phe-Gly-Gly-Arg-Met-Asp-Arg-Ile-Gly-Ala-Gln-Ser-Gly-Leu-Gly-Cys-Asn-Ser-Phe-Arg-Tyr-OH (TAPRSLRRSSCFGGRMDRIGAQSGLGCNSFRY-OH; ends and bridges not checked) [Peptide 2],did not inhibit,did not significantly change,did not significantly change,10%,9%,did not inhibit,100%,,"change of the production of IL-2 in murine spleen cells ([3]; Ovalbumin-restimulated spleen cells, combination 0.95 mole peptide 1 and 1.05 mole peptide 2): did not significantly change; suppression of the production of IL-4 in murine spleen cells [4]: 30.4%; induction of the production of IL-4 ([4]; combination 0.95 mole peptide 1 and 1.05 mole peptide 2): 59.7%"
His-Ser-Asp-Gly-Thr-Phe-Thr-Ser-Glu-Leu-Ser-Arg-Leu-Arg-Glu-Gly-Ala-Arg-Leu-Gln-Arg-Leu-Leu-Gln-Gly-Leu-Val-NH2 [Peptide 1],27.6%,did not significantly change,did not significantly change,2%,33%,did not inhibit,100%,,decrease of the production of IL-2 in murine spleen cells ([3]; Ovalbumin-restimulated spleen cells of Balb/c mice): 77.7%; change of the production of IL-4 in murine spleen cells [4]: did not significantly change; decrease of the production of IL-5 [10]: 45.8%
Cc1cn([C@H]2C[C@H](N=[N+]=[N-])[C@@H](CO)O2)c(=O)[nH]c1=O [AZT],,,,,,,,expected levels of antiviral activity,
CC(C)(C)NC(=O)[C@@H]1CN(Cc2cccnc2)CCN1C[C@@H](O)C[C@@H](Cc1ccccc1)C(=O)N[C@H]1c2ccccc2C[C@H]1O [indinavir],,,,,,,,expected levels of antiviral activity,
